Data set [1] is described as follows: Toxicity/tolerability in mice transplanted with TMZ-resistant brain tumors. As to conditions: for Survival of mice to the end of the testing period: 10 or 20 mg/kg IV with TMZ 10 mg/kg, testing period (15)/19 days; for Toxicity (body weight decrease, low survival rate): dose of 10 mg/kg or above IV, with TMZ 10 mg/kg IP.
Text: (§1) To evaluate the toxicity of DTX and CTX and the efficacy of direct administration of DTX and CTX on treating TMZ resistant brain tumors, 36 mice transplanted with TMZ-resistant brain tumors were used in the experiments, divided into six groups, each group having six mice; details of dosage are noted in Table 7 below:
(§2) The administration frequency was twice per week until the end of the study. DTX, CTX and PBS were intravenously (IV) injected and TMZ was intraperitoneally (IP) injected into mice. To assess overall survival, mice were monitored up to the point of spontaneous death or approaching moribund status.
For data set [2], the system named is TMZ-resistant glioma cells (U87MG-R). The experiment in a line: Orthotopic TMZ-resistant brain tumor mouse model (survival, tumor size).
Experimental: TMZ-resistant glioma cells (U87MG-R) were cultured at 37° C. in a humidified 5% CO2 atmosphere in Dulbecco's Modified Eagle Medium (DMEM) supplemented with 10% fetal bovine serum and 100 ug/mL penicillin/streptomycin. NOD-SCID male mice (8-week-old) were purchased from BioLASCO Taiwan Co. Ltd. For intracranial transplantation, an experimental procedure was performed under sterile conditions. For TMZ-resistant glioblastoma transplantation, a skull burr hole was created in the right frontal brain area. Cells (2×10^5, or five microliters of TMZ-resistant glioma cell suspension (U87MG-R, 6×10^5 cells/5 μL) were injected into the cortex at a depth of 3 mm using stereotactic guidance and a microprocessor single syringe (Harvard Apparatus, Holliston, MA, USA).
as §2
Body weight and survival time of animals were monitored up to the point of spontaneous death.
For data set [3] the following is noted: mouse, in vivo, iv.
Text: as §1, §2
Where [4] appears, read: 10 mg/kg IV + TMZ 10 mg/kg IP, twice per week.
Setting [5] is: 20 mg/kg IV + TMZ 10 mg/kg IP, twice per week.
Where [6] appears, read: PBS IV + TMZ 10 mg/kg IP, twice per week.

Regarding `CO[C@H]1C(=O)[C@]2(C)[C@@H](OC)C[C@H]3OC[C@@]3(OC(C)=O)[C@H]2[C@H](OC(=O)c2ccccc2)[C@]2(O)C[C@H](OC(=O)[C@H](O)[C@@H](NC(=O)OC(C)(C)C)c3ccccc3)C(C)=C1C2(C)C` [CTX, cabazitaxel], in data set [1], the “Survival of mice to the end of the testing period” value is on record as “all mice died before the end of the testing period” and the “Toxicity (body weight decrease, low survival rate)” value is recorded as “high toxicity”. Further, the “Toxicity of direct administration” value in data set [1] (dose of 5 mg/kg or higher) is “high toxicity”. In data set [2] (setting [4]), the “Median Survival Time (days after 1st injection)” value was 11 days and the “Median Survival Time (days after implantation of tumor cells)” value came to 15 days. Also, in data set [2] (setting [5]), the “Median Survival Time (days after 1st injection)” value turned out to be 8 days and the “Median Survival Time (days after implantation of tumor cells)” value is listed as 12 days.
On to `CC(=O)O[C@@]12CO[C@@H]1C[C@H](O)[C@@]1(C)C(=O)[C@H](O)C3=C(C)[C@@H](OC(=O)[C@H](O)[C@@H](NC(=O)OC(C)(C)C)c4ccccc4)C[C@@](O)([C@@H](OC(=O)c4ccccc4)[C@H]21)C3(C)C` [DTX, docetaxel], for which the Signs of toxicity entry in data set [3] is “immobility, interaction deficits, and more body weight loss”. For the same compound, in data set [1], the “Survival of mice to the end of the testing period” value is on record as “all mice died before the end of the testing period” and the “Toxicity (body weight decrease, low survival rate)” value is listed as “high toxicity”. For the same compound, in data set [2] (setting [4]), the “Median Survival Time (days after 1st injection)” value was determined as 15 days and the “Median Survival Time (days after implantation of tumor cells)” value is recorded as 19 days. Also, in data set [2] (setting [5]), the “Median Survival Time (days after 1st injection)” value was 11 days and the “Median Survival Time (days after implantation of tumor cells)” value amounted to 15 days.
For the compound `Cn1nnc2c(C(N)=O)ncn2c1=O` [TMZ, temozolomide], in data set [2] (setting [6]), the “Median Survival Time (days after 1st injection)” value came out at 23 days. For the same compound, the “Median Survival Time (days after implantation of tumor cells)” value in data set [2] (setting [6]) is 27 days; in data set [2] (Table 9: PBS + TMZ (10 mg/kg)), 27 [26.5] days; in data set [2] (Table 10: PBS + TMZ (10 mg/kg)), 27 [26.5] days.

These data come from US12274688B2, “Drug-loaded mesoporous silica nanoparticle for prevention and treatment of brain cancers or brain metastases” (NANO TARGETING & THERAPY BIOPHARMA INC, priority 2022, dated 2025).
